Data from article PMC12042267, “Expanding the Family of Monosubstituted 15-Membered Pyridine-Based Macrocyclic Ligands for Mn(II) Complexation in the Context of MRI” (Inorganic Chemistry, 2025).

Key:
Format in all cases: physicochemical
[1] = Dissociation kinetics of Mn(II) complexes, transmetalation with Zn(II) (T2 relaxation)
Method: The transmetalation reaction of MnL2 and MnL3 (1.4 mM) was monitored in the presence of 10, 20, 30, and 40 mol equiv of Zn(II) ions, by measuring water proton T2 relaxation times (60 MHz) as a function of time at 25 °C and in 0.15 M NaCl, in the pH range 4.9–6.0 (4.9, 5.0, 5.2, 5.5, and 6.0). To control pH, 50 mM N-methyl-piperazine (pH 4.9–5.5) or 50 mM MES (2-(4-morpholino)ethane-sulfonic acid) buffer (pH 5.7–6.0) was used. Transmetalation of MnL2 (0.3 mM) was also investigated in the presence of 10, 20, 30, and 40 mol equiv of Cu(II) ions, by monitoring the UV–vis absorbance at 274.0 nm as a function of time at 25 °C and in 0.15 M NaCl, in the pH range 4.7–5.0 (in 75 mM 1,4-dimethyl piperazine (DMP) buffer). No oxidation of the samples was observed. The program OriginPro 9 was used for the fitting of experimental data.
The dissociation kinetics was followed through monitoring Mn(II) release by water proton T2 measurements, at pH […], in the presence of 10- to 40-fold excess of Zn(II) and through UV–vis measurements in the presence of 10- to 40-fold excess of Cu(II) at pH 4.7–5.0 (only for MnL2). The observed dissociation rate constants, kobs, increase with increasing H^+ ion concentration (Figures 4, left and S20). They remain independent of Zn(II) concentration (Figures S18 and S19), but do show dependence on Cu(II) concentration (Figure S21).
In excess of the exchanging metal ion, the reaction is of pseudo-first order, and the rate is proportional to the total MnL2 or MnL3 concentration (eq 1), where kobs is the pseudo-first-order rate constant. [drawing 4] 1 In general, different dissociation pathways can coexist, implying the participation of protons and/or the exchanging metal ion,[47] as illustrated in Figure 5.
Based on this scheme, the overall rate for either Zn(II) or Cu(II) transmetalation can be given by eq 2, where M = Zn^2+ or Cu^2+ (for clarity, charges of the complexes are omitted). [drawing 5] 2 Here, the first and second terms correspond to the spontaneous dissociation of the nonprotonated and the monoprotonated complexes, respectively, the third term describes the proton-assisted dissociation of the monoprotonated complex, and the last two terms refer to the spontaneous dissociation of the dinuclear complex and metal-assisted dissociation of the monoprotonated MnL2 or MnL3 complex. [MnL]tot describes the total concentration of Mn(II) chelates ([MnL]tot = [MnL] + [MnHL] + [ZnLMn]). Since no obvious Zn(II) dependence (for any of the two systems) was observed, only the spontaneous and proton-assisted dissociation pathways were taken into consideration. Consequently, the observed rate constants can be expressed as in eq 3 with k0 = kMnL, k1 = kMnHL·KMnHL, and k2 = ^HkMnHL·KMnHL. [drawing 6] 3 The kobs rate constants were fitted to eq 3, and the calculated parameters are listed in Table 5 for the Zn(II) exchange. During the fitting procedure, KMnHL was fixed to the value obtained from the pH-potentiometric titrations.

[2] = Stability constants of Mn(II) complexes by pH-potentiometry, pMn and species distribution; conditions: species distribution, [Mn(II)] = [L] = 1.5 mM
Method: Metal stock solutions were prepared from the highest analytical grade chemicals, and their concentration was determined by complexometric titration with standardized Na2H2EDTA, using xylenol orange indicator in the presence of urotropine buffer (ZnCl2 and MnCl2); Eriochrome black T indicator in the presence of ammonium acetate buffer (CaCl2) or murexide indicator in ammonium solution (CuCl2). The concentration of the ligand stock solutions was determined by pH-potentiometric titrations (the difference between two consecutive inflection points of the ligand titration curve corresponds to two (L2) or one (L3) ligand equivalents). To determine the protonation constants of the ligand and stability constants of the metal complexes with selected divalent metal ions, pH-potentiometric titrations were carried out with 0.1 M NaOH at 2 mM ligand concentration, in the absence (for ligand protonation constants) or in the presence of one equivalent of metal ion (for stability constants). During the titration, the waiting time was 2 min between successive points (V0 = 5 mL). The temperature (25.0 ± 0.1 °C) was controlled by a circulating water bath. The ionic strength was set to I = 0.15 M NaCl. All titrations were performed under a nitrogen atmosphere to avoid the effect of CO2. Titrations were carried out in the pH range from 1.8 (L3) or 2.0 (L2) (after the addition of 1 M HCl solution to the starting ligand solution in the titration cell) to pH 11 (or until precipitation of the metal hydroxide). All pH-potentiometric titrations were performed using a 785 DMP Titrino titration workstation with a combined electrode (Metrohm). The p[H] (p[H] = −log[H+], concentration in molarity) was measured in each titration with a combined pH glass electrode (Metrohm) filled with 3 M KCl. The electrode was calibrated in hydrogen ion concentration by titration of HCl with KOH in 0.1 M electrolyte solution.[37] A plot of potential versus p[H] allows determination of the electrode standard potential (E°) and the slope factor (f).
The protonation constants of the ligand (log Ki^H) are defined as follows [drawing 1] where i = 1, 2, ··· and [Hi–1L] and [H^+] are the equilibrium concentrations of the ligand (i = 1), its protonated forms (i = 2, ···), and the hydrogen ion. The stability (KML) and the protonation (KMHiL) constants for the metal complexes are defined as follows [drawing 2] [drawing 3] For the calculations of the equilibrium constants, the HYPERQUAD program was used.[38] The number of fitted data pairs was between 190 and 240. The ionic product of water at 25 °C and 0.1 M ionic strength is pKw = 13.77.[39] Fixed values were used for pKw, ligand acidity constants, and total concentrations of metal, ligand, and acid. All values and errors (one standard deviation) reported are at least the average of two independent experiments.
To obtain further information about the impact of a given pendant arm, it is interesting to calculate pMn values (pMn = −log[Mn(II)]free at pH 7.4, cMn = clig= 10^–5 M) which provide a more direct comparison of MnL stabilities, independently of differences in protonation constants (Table 4). […] Nevertheless, the too large, 15-membered macrocyclic cavity combined with a lower number of pendant arms provide ca. 2 orders of magnitude lower stability for Mn(II) complexation as compared to the 12-membered pyclen derivatives (Table 4).

[3] = Water solubility of complex samples; conditions: at the concentrations required for the measurements
From the text: MnL2 and MnL3 complex samples for kinetic and relaxometric studies have been prepared by mixing MnCl2 and L2 or L3 solutions of known concentrations in a 1:1.05 ratio and by adjusting the pH to 7.4. Mn(II) concentration in each sample was verified by bulk magnetic susceptibility measurements.

[4] = Zn(II) transmetalation, 25 °C, 0.15 M NaCl, pH 4.9–6.0

| dissociation half-life t1/2 ([1]; Mn(II) complex, t1/2 = ln 2/kobs calculated for pH 7.4, Zn(II)) [min] | pH above which full complex formation is achieved [2] | water solubility [3] | SMILES | k0 (spontaneous dissociation of the nonprotonated complex) [1, 4] | k2 (proton-assisted dissociation of the monoprotonated complex) [1, 4] |
| --- | --- | --- | --- | --- | --- |
| 10.4 | > 6 | water-soluble | O.[Mn+2].c1ccc(CN2CCOCCOCCNCc3cccc(n3)C2)nc1 [MnL2] | (1.1 ± 0.3) × 10^–3 s^–1 | (4.5 ± 0.8) × 10^7 M^–2 s^–1 |
|  | > 6 | water-soluble | O.[Mn+2].c1cc2nc(c1)CN(Cc1nc3ccccc3[nH]1)CCOCCOCCNC2 [MnL3] | (1.9 ± 0.3) × 10^–3 s^–1 |  |
